Legend:
[1] = 5% chelating agent, 3000 ppm ferric ions; cited from earlier work
[2] = Solubility and stability test of iron in concentrated HCl chelating agent formulations; format: physicochemical; conditions: 5 wt. % single chelating agent, 72° F. (22.2° C.)
Procedure: The solubility test was conducted at varying HCl and chelating agent concentrations. During the solubility test the concentration of HCl was set to either 20 wt. % (low) or 28 wt. % (high) concentration.
Each chelating agent was used alone with varied concentrations ranging from 1 to 10 wt %.
To the evaluate the capability of the generated formulation to sustain the iron in the solution without precipitation, 3000 ppm of iron was dissolved in the respective formulations, and, after that, the stability of the formulation as function of time was evaluated.
The effect of the pH on the performance of exemplary inventive formulations was evaluated by repeating the solubility and stability tests at varied pH values.

[3] = 20 wt. % HCl, 3000 ppm iron, 96 hours
[4] = 28 wt. % HCl at pH 5, 3000 ppm ferric ions, after 96 hours

O=C(O)CC[C@@H](C(=O)O)N(CC(=O)O)CC(=O)O [GLDA, glutamic acid N,N-diacetic acid]
pH up to which ferric ions are kept in solution [1]: less than 3.0
iron precipitation during stability evaluation [2, 3]: no precipitation
iron precipitation during stability evaluation [2, 4]: precipitation

O=C(O)CN(CCO)CCN(CC(=O)O)CC(=O)O [HEDTA, hydroxyethyl ethylenediamine triacetic acid]
iron precipitation during stability evaluation [2, 3]: no precipitation
iron precipitation during stability evaluation [2, 4]: precipitation

From patent publication US11795378B2, “Iron control composition, make, and use in carbonate stimulation” (King Fahd University of Petroleum and Minerals, priority 2019, dated 2023)
